One data set has as its target Flt4_h (Homo sapiens, UniProt P35916). Nature of the data set: SelectScreen kinase assay. Format: biochemical.
The target in another data set is T1, MSK2_h (Homo sapiens, UniProt O75676).
T1 construct: purchased Life Technologies (Invitrogen) SelectScreen, Z'-LYTE / Adapta
The data set is described as follows: SelectScreen kinase assay. Format: biochemical. Conditions: KM ATP, read-out: % control.

The next data set addresses T2, PhK-gamma1_h (Homo sapiens, UniProt Q16816).
T2 construct: purchased Life Technologies (Invitrogen) SelectScreen, Z'-LYTE / Adapta
Nature of the data set: SelectScreen kinase assay. Format: biochemical. Conditions: KM ATP, read-out: % control.

Another data set concerns the target T3, Aurora A (Homo sapiens, UniProt O14965).
T3 construct: purchased Millipore 14-511
The data set is described as follows: Aurora A IMAP TR-FRET assay. Format: biochemical. Conditions: in-house, mean ± SD. In general terms: TR-FRET usually uses a lanthanide donor and a delayed reading to cut background.

A further data set deals with T4, Cyp3A4 (Homo sapiens, UniProt P08684).
T4 construct: purchased Life Technologies (Vivid Assay kits)
The data set is described as follows: Vivid cytochrome P450 inhibition assay. Type of data set: in vitro ADME. Conditions: data not shown. The method, then:
(§1) Syk kinase mode of inhibition studies, including parameters described in Fig 1, were conducted on the LC3000 platform by Caliper Life Sciences (Hopkinton, MA) according to standard protocols developed by the supplier. […] Non-kinase enzyme assays and GPCR, ion channel, and transporter binding assays were run by CEREP (France). Non-GLP manual patch clamp hERG assays were run by ChanTest (Cleveland, Ohio). Vivid® Assay kits (Life Technologies) were used to measure the cytochrome P450 inhibition of the compound against CYP3A, CYP2C9, CYP2C19, CYP2D6, and CYP1A2, as described.

The next data set concerns the target T5, Cyp2D6 (Homo sapiens, UniProt P10635).
T5 construct: purchased Life Technologies (Vivid Assay kits)
Nature of the data set: Vivid cytochrome P450 inhibition assay. Conditions: data not shown. Type of data set: in vitro ADME. The method, then: as §1

The target of a further data set is T6, Cyp1A2 (Homo sapiens, UniProt P05177).
T6 construct: purchased Life Technologies (Vivid Assay kits)
The data set is described as follows: Vivid cytochrome P450 inhibition assay. Type of data set: in vitro ADME. Conditions: data not shown. The method, then:
as §1

The target of the next data set is T7, Cyp2C9 (Homo sapiens, UniProt P11712).
T7 construct: purchased Life Technologies (Vivid Assay kits)
Nature of the data set: Vivid cytochrome P450 inhibition assay. Conditions: data not shown. Format: in vitro ADME. Here is the method:
as §1

For a further data set, the target named is T8, Cyp2C19 (Homo sapiens, UniProt P33261).
T8 construct: purchased Life Technologies (Vivid Assay kits)
Nature of the data set: Vivid cytochrome P450 inhibition assay. Format: in vitro ADME. Conditions: data not shown. Here is the method: as §1

The target in a further data set is T9, CK2-alpha2_h (Homo sapiens, UniProt P19784).
T9 construct: purchased Life Technologies (Invitrogen) SelectScreen, Z'-LYTE / Adapta
Nature of the data set: SelectScreen kinase assay. Format: biochemical. Conditions: KM ATP, read-out: % control.

A further data set has as its target T10, 5-lipoxygenase (Homo sapiens, UniProt P09917).
T10 construct: CEREP (contract assay)
Nature of the data set: non-kinase enzyme panel (CEREP). Type of data set: biochemical. Here is the method:
as §1

For another data set, the target named is T11, PDE2A (Homo sapiens, UniProt O00408).
T11 construct: purchased CEREP (contract assay)
Nature of the data set: non-kinase enzyme panel (CEREP). Type of data set: biochemical. The method, then:
as §1

For a further data set, the target named is T12, PDE5 (Homo sapiens, UniProt O76074).
T12 construct: purchased CEREP (contract assay)
Nature of the data set: non-kinase enzyme panel (CEREP). Type of data set: biochemical. Here is the method:
as §1

Another data set addresses T13, JAK2 (Homo sapiens, UniProt O60674).
T13 construct: purchased Millipore 14-511
The data set is described as follows: JAK2 HTRF assay. Type of data set: biochemical. Here is the method:
CC-509 was prepared at a concentration of 1.5 mM in DMSO followed by 3-fold dilutions in Greiner […] polypropylene plates. A 1:4 dilution of compounds by 8 μL/well transfer from the polypropylene plates to 24 μL/well Assay Buffer (50 mM HEPES pH 7.6, 1 mM DTT, 10 mM MgCl2, 0.01% Triton X100, 0.01% BSA and 0.1 mM EDTA) in Costar 3573 384 well black plates was then performed. Kinase (13 μL/well of 4.6 ng/mL JAK2, Millipore 14–511) or Assay Buffer only (background controls) were added to Costar 3573 384-well black plates and compound (2 μL/well) was added from the 1:4 dilution plate. […] Time resolved fluorescence was read in assay plates on a PerkinElmer EnVision. […]
For the TEL-Syk assay, the intensity values for the 700 and 800 channel were exported as text files in ActivityBase (IDBS, Guildford, UK) to derive the ratios that reflect kinase activity. […] For the JAK2 HEL and Ramos NFAT β-lactamase assays, the fluorescence values obtained at 460 nm and 530 nm were exported into ActivityBase to calculate response ratios. […] Evans blue dye extravasation was expressed as mean ± SEM and % inhibition for the test article groups was normalized to the cromolyn positive control. […] The mean data from each group was plotted and either the AUC(day 11–18) or % inhibition on day 18 was calculated. Data is expressed as mean ± SEM of each group with n = 6–12. […]

For data set [1], the system named is rat collagen-induced arthritis model. Conditions: 10 or 30 mg/kg b.i.d.; cited from earlier work.
The target in the next data set is T14, DNAPK_h (Homo sapiens, UniProt P78527).
T14 construct: purchased Life Technologies (Invitrogen) SelectScreen, Z'-LYTE / Adapta
Nature of the data set: SelectScreen kinase assay. Type of data set: biochemical. Conditions: 3 µM, KM ATP. The method, then:
as §1
Kinase activity was measured using either the Z’-Lyte® or the Adapta® protocols as part of the SelectScreen™ profiling service offered at Life Technologies (Grand Island, NY). […] Values expressed as percent control (% control) relative to DMSO-only wells (uninhibited, 100%).

Where “and” joins values, the source holds several entries; their conditions need not be identical. Identical values can stand only once.

Flt4_h, sequence (P35916 25-1363): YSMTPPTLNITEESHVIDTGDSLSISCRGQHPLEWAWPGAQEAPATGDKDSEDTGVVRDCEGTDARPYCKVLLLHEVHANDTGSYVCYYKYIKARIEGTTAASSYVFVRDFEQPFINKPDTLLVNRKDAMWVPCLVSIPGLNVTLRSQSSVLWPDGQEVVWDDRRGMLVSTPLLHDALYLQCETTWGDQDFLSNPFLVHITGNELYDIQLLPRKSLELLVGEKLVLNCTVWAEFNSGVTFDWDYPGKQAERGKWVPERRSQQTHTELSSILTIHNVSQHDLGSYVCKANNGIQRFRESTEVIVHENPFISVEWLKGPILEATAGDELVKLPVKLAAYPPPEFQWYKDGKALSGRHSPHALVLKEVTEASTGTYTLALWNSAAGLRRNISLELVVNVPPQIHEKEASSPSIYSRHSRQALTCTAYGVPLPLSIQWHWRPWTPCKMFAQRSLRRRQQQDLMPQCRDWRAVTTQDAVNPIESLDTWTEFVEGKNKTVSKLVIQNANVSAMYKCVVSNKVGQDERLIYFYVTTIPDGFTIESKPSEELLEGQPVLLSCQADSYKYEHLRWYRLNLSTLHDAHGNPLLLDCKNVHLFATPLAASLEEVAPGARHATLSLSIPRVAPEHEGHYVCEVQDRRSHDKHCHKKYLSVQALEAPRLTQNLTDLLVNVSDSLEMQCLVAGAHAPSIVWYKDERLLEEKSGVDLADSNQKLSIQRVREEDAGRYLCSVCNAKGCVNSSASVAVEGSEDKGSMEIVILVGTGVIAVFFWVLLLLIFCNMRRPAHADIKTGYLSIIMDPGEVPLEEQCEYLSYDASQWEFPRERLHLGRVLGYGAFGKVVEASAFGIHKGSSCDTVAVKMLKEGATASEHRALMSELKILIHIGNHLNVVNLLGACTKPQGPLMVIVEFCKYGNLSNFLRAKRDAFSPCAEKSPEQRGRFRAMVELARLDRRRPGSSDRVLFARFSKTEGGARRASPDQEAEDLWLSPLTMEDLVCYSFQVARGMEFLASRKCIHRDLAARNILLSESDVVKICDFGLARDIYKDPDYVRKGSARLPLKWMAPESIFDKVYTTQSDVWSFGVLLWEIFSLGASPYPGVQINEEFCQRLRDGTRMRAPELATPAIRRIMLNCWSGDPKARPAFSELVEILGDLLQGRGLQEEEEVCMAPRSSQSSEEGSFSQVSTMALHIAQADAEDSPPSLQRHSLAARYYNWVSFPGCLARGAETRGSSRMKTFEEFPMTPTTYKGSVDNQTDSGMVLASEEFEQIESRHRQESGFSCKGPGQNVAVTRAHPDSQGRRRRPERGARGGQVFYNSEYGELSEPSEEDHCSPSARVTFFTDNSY
T13 sequence (O60674 whole entry): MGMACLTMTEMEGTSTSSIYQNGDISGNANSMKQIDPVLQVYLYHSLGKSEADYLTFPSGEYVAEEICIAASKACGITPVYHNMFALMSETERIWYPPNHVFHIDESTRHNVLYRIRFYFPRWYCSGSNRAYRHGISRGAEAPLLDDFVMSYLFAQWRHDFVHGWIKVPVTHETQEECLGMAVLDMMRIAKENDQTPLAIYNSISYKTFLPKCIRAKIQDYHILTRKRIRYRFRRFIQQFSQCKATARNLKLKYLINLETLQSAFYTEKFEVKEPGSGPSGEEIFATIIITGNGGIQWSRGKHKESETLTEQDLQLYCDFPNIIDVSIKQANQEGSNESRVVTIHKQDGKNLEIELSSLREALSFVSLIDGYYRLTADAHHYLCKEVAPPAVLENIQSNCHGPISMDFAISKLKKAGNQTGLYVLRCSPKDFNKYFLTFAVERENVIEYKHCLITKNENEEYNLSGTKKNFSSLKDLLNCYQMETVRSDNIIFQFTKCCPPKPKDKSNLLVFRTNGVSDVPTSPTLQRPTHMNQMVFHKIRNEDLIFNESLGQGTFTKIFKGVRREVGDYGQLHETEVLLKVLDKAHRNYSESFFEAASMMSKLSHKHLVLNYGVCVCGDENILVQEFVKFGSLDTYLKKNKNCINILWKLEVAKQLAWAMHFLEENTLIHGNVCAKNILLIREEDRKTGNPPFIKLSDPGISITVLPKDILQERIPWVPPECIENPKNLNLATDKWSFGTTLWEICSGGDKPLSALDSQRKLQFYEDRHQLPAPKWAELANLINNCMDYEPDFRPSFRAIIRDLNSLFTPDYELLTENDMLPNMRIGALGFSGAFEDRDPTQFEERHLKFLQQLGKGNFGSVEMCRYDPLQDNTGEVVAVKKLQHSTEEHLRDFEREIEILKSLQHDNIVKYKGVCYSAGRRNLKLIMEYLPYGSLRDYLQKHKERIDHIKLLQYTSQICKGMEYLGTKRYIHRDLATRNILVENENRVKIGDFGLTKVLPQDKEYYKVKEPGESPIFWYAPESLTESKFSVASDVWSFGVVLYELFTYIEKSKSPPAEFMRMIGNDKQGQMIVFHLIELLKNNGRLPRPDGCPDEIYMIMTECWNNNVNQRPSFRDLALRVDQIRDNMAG
T3 sequence (O14965 whole entry): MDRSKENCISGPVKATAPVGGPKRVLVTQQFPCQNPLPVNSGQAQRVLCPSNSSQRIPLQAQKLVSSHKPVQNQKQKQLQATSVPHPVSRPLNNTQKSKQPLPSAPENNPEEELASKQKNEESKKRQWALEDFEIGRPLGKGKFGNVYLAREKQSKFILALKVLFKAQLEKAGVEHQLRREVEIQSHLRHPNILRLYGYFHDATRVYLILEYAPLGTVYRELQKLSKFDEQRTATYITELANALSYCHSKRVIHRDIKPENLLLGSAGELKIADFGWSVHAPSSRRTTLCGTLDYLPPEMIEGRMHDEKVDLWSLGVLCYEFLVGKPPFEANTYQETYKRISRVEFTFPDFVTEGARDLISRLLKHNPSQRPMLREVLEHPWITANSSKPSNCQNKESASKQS
T7 sequence (P11712 whole entry): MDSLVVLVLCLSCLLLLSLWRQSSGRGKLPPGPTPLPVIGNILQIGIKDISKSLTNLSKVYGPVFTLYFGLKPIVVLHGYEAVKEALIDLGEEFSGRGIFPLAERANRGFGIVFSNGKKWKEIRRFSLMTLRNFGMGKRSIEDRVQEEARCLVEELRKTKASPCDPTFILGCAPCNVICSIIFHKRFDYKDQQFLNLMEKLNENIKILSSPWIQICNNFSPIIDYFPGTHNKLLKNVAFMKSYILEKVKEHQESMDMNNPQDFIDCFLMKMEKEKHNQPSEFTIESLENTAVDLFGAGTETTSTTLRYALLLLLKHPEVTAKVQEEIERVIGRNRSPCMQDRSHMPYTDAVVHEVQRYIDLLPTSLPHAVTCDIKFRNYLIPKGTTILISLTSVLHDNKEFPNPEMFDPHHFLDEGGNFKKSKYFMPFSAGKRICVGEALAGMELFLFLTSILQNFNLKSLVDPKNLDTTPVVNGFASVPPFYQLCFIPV
T4 sequence (P08684 whole entry): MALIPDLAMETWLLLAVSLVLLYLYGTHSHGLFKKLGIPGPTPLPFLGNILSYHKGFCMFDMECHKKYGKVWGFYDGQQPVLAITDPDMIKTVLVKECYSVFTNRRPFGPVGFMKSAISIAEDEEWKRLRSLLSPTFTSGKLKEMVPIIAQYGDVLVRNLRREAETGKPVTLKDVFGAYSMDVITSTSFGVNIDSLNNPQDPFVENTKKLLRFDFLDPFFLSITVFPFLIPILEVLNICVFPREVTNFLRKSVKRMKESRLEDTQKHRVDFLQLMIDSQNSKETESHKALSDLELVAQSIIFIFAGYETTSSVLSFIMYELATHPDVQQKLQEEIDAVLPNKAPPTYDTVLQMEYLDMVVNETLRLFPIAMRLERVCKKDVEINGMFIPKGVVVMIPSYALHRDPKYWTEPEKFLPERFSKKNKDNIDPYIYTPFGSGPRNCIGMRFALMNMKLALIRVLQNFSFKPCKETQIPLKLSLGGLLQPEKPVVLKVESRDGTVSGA
T8 sequence (P33261 whole entry): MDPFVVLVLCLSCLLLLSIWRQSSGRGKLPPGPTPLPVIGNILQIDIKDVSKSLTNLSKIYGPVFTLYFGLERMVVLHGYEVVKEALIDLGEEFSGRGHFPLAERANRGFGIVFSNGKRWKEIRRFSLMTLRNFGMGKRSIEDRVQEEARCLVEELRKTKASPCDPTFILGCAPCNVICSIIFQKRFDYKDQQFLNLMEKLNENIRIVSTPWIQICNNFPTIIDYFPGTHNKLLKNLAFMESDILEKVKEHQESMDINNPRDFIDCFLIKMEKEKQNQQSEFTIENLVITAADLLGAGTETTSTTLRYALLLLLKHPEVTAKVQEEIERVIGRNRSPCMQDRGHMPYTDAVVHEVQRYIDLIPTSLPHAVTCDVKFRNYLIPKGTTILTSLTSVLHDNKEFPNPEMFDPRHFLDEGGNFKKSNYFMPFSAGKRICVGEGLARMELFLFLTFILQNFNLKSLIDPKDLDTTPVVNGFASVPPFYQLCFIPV
T2 sequence (Q16816 whole entry): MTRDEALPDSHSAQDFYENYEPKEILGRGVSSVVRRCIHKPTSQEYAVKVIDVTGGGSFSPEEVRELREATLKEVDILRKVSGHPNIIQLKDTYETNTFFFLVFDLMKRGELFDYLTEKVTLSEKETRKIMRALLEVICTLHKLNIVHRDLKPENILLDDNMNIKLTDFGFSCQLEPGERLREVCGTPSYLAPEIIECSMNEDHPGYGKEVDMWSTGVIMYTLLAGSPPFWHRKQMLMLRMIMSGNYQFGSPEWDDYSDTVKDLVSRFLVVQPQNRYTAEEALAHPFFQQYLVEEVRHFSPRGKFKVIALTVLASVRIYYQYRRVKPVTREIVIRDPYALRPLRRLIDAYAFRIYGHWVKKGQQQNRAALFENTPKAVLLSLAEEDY

Consider `c1cc(CC2CCOCC2)n2nc(Nc3ccc4c(NC5CCOCC5)n[nH]c4c3)nc2c1` [CC-509, [3-(2H-3,4,5,6-tetrahydropyran-4-ylamino)(1H-indazol-6-yl)][5-(2H-3,4,5,6-tetrahydropyran-4-ylmethyl)(2H-1,2,4-triazolo[1,5-a]pyridin-2-yl)]amine], for which the remaining activity at 3 µM at Flt4_h (3 µM, KM ATP, read-out: % control) came to 1%; at MSK2_h, 81%; on PhK-gamma1_h, 75%; on CK2-alpha2_h, 97%. Further, the IC50 (commonly the point on the concentration scale where inhibition reaches its midpoint) on Flt4_h (10-point dose-response, commercial vendor) is 50 nM and 53.9 nM; against Aurora A, 220 ± 50 nM; against JAK2 (in-house, mean ± SD), 19 ± 2 nM. For the same molecule, the “inhibition of Cyp450 activity” value against Cyp3A4, against Cyp2D6, at Cyp1A2, against Cyp2C9 and against Cyp2C19 was “did not inhibit” in each case. Further, the inhibition (in general, the relative decrease from the control value, in per cent) at 10 µM amounted to 73% against 5-lipoxygenase, 89% on PDE2A and 90% on PDE5. For the same molecule, the “fold less potent than R406, Jak2 enzyme” value on JAK2 (data not shown) is 22 fold.
For `COc1cc(Nc2ncc(F)c(Nc3ccc4c(n3)NC(=O)C(C)(C)O4)n2)cc(OC)c1OC` [R406, reference compound], the “clinical paw score in rat CIA” value in data set [1] is on record as “significantly reduced”. Moreover, the “% control” value on DNAPK_h was determined as 87%.

The values above are taken from article PMC4710522, “A Novel Triazolopyridine-Based Spleen Tyrosine Kinase Inhibitor That Arrests Joint Inflammation” (PLoS ONE, 2016).
